In patent US10351613B2, “Polypeptide for inhibition of tumor” (G-Bio Pharma Tech Co., Ltd., priority 2015, dated 2019):
Values after ≈ are worked out from the molar mass of the structure shown. Residues, ends and D or L forms follow the SMILES beside them.

What was measured:
[1] = system: Human lung cancer A549 tumor model; assay: Inhibition on in vivo growth of tumor in combination with DDP, A549 model; details: for Tumor inhibitor rate (%): A549, day 21
Experimental: In vitro cultured tumor cells in exponential phase and in good state were formulated to a 100 μl cell suspension containing 5×10^6 tumor cells. The suspension was subcutaneously inoculated to nude mice. Well-grown solid tumors were obtained 15 days later and cut into uniform pieces of about 3 mm under sterile condition. Each nude mouse was inoculated by one piece through a trocar. Mice were re-grouped according the tumor size 10-14 days after inoculation and animals having too large and too small tumor were excluded from the test. […] Test drugs were administered to each group according to the experimental protocol. The major axis (a) and minor axis (b) of the tumor were measured twice a week. Animals were sacrificed at the end of the test. The tumor was taken out, weighed and photos were taken. Tumor volume (TV)=½×a×b^2; Relative tumor volume (RTV)=Vt/Vo, wherein Vo is the tumor volume measured before grouping (one day before administration of the test drug), and Vt is the tumor volume measured at each time. Tumor inhibition rate (%)=(1−T/C)×100%, wherein T is the average tumor volume of the treatment group and C is the average tumor volume of the negative control group.
The amino acid sequence of recombination endostatin (“endostatin”) was set forth in SEQ ID NO: 1, and the amino acid sequence of the marketed drug Endostar (“endostar”) was set forth in SEQ ID NO: 10. Human lung cancer A549 tumor model was constructed according to the method described in Example 10. The test contained 7 groups, with 6 animals in each group. The molar dose of the polypeptides was basically equal to the molar dose of endostatin.

[2] = system: CK-MES-1 (lung squamous cell carcinoma); assay: MTT in vitro inhibition of CK-MES-1; format: cell-based
Experimental: (§1) Inhibition of cell growth was detected by a MTT method, which is based on the principle that succinate dehydrogenase in the mitochondria of the live cells could reduce the exogenous MTT (3-(4,5-dimethyl-2-thiazolyl)-2,5-diphenyl-tetrazolium bromide) to a […] Formazan which is a blue-violet crystal, and precipitates in the cells, while the death cells could not reduce MTT. DMSO could dissolve Formazan in the cells. Absorbance value of the solution was determined at 490/570 nm by microplate reader, which could indirectly indicate the amount of the live cells. The amount of the crystal from MTT is proportional to the amount of the cells within a certain range of cell number. The supernate from the HUVEC or tumor cells in exponential phase was removed and the cells were washed by PBS once. 1 ml 0.25% trypsin (4° C.) was added for digestion at 37° C. for 2 min. Then the supernate was added for neutralization and the cells were dispersed to form a suspension and the suspension was centrifuged at 1000 rpm for 3 min. The supernate was removed and 5 ml culture mediums were added for resuspension. Cells were inoculated in a 48-well plate by 500 ul/well at the concentration of 3×10^4/ml and then incubated under 5% CO2, 37° C. for 24 hours. The supernate was removed and a culture medium containing polypeptide (Zn^2+ in the culture medium was present at the concentration of 17.39 μmol/L) was added for further incubation for 48 hours. Supernate in each well was carefully removed. The well was gently washed by PBS once in an amount of 450 μl/well. 450 μl MTT culture mediums were added into each well for further cultivation for 4 hours. The supernate was carefully discarded. DMSO was added in an amount of 450 μl/well and then the plate was placed in a shaking bed for oscillation for 10 min in dark. 150 μl supernates were transferred to a 96-well ELISA plate and absorbance value of each well was detected at 490 nm and 570 nm by the microplate reader.
(§2) P2 (SEQ ID NO:2) and P2T2S18 (SEQ ID NO:6) were tested for their in vitro inhibition on SMMC7221, SPC-A-1, A549, LS174T, BEL7402, CK-MES-1 and BxPC-3 at a polypeptide concentration of 1 mg/ml according to the method described in Example 3. Results are shown in FIG. 9 and the following Table. […] All IC50 concentrations for P2T2S18 are less than 1/10 IC50 concentration of P2.

[3] = system: lung cancer cell line SPC-A-1; assay: In vitro death of SPC-A-1 tumor cell observed under optical microscope; format: cell-based; details: SPC-A-1, 2.5 mg/ml
Experimental: Polypeptides were tested for their effect in inducing cell death of lung cancer cell line SPC-A-1 at a polypeptide concentration of 2.5 mg/ml according to the method described in Example 3. Cells were observed under an optical microscope over 24 hours and photos were taken. P2 exerts its function 4 hours after being added into the culture medium. […] On the contrary, they extremely swelled. 4 hours later cells further swelled and began to disintegrate at 8 hours. […] The manner of P2T2S18 caused cell death is very surprising. Currently, it is unable to determine what manner this kind of cell death belongs to. No report is found in papers as well. However, this mode of cell death is obviously different from that caused by P2. Together with the results in Example 7, it can conclude that P2T2S18 not only has a biological activity obviously higher than P2, but also has a manner causing cell death obviously different from that of P2.

SPC-A-1 (lung carcinoma) = format: cell-based
Experimental: as §1, §2

LS174T (Colon cancer) = format: cell-based
Experimental: as §1, §2

tumor cell HepG2 = format: cell-based
Experimental: as §1

SMMC7721 (Liver cancer) = assay: MTT in vitro inhibition of SMMC7721; format: cell-based
Experimental: as §1, §2

A549 (lung carcinoma) = assay: MTT in vitro inhibition of A549; format: cell-based
Experimental: as §1, §2

[4] = system: BxPC-3 (pancreatic cancer); assay: MTT in vitro inhibition of BxPC-3; format: cell-based
Experimental: as §1, §2

[5] = system: Human Umbilical Vein Endothelial Cell (HUVEC); format: cell-based
Experimental: 20 cm umbilical cord adjacent to fetus was taken, cleaned by washing, ligated at both ends, placed into 150 ml preservation solutions for umbilical cord, and stored in a 4° C. refrigerator for digestion for 6 hours. The umbilical cord was inspected to remove the damaged portion. The umbilical vein was thoroughly cleaned by washing and then 10 ml collagenase solution was injected. Then the umbilical vein was transferred to a 37° C. incubator for digestion for 15 minutes. The umbilical cord was removed and the digested solution was recovered. The digested solution was washed by PBS and centrifuged. After centrifugation, the cells were culture by re-suspension.
as §1

[6] = system: Human liver cancer BEL7404 tumor model; format: in vivo; details: BEL7404, day 21; polypeptides 15 mg/kg sc 2 times per day 21 days; endostatin/endostar 50 mg/kg sc; CTX 30 mg/kg ip 7 days
Experimental: In vitro cultured tumor cells in exponential phase and in good state were formulated to a 100 μl cell suspension containing 5×10^6 tumor cells. The suspension was subcutaneously inoculated to nude mice. Well-grown solid tumors were obtained 15 days later and cut into uniform pieces of about 3 mm under sterile condition. Each nude mouse was inoculated by one piece through a trocar. Mice were re-grouped according the tumor size 10-14 days after inoculation and animals having too large and too small tumor were excluded from the test. The average tumor volume for each group was basically identical. Test drugs were administered to each group according to the experimental protocol. The major axis (a) and minor axis (b) of the tumor were measured twice a week. Animals were sacrificed at the end of the test. The tumor was taken out, weighed and photos were taken. Tumor volume (TV)=½×a×b^2; Relative tumor volume (RTV)=Vt/Vo, wherein Vo is the tumor volume measured before grouping (one day before administration of the test drug), and Vt is the tumor volume measured at each time. Tumor inhibition rate (%)=(1−T/C)×100%, wherein T is the average tumor volume of the treatment group and C is the average tumor volume of the negative control group.
The amino acid sequence of recombination endostatin (“endostatin”) was set forth in SEQ ID NO: 1, and the amino acid sequence of the marketed drug Endostar (“endostar”) was set forth in SEQ ID NO: 10. Human liver cancer BEL7404 tumor model was constructed according to the method described in Example 10. The test contained 6 groups, with 6 animals in each group, except for the negative control group which contained 9 animals. The molar dose of the polypeptides was basically equal to the molar dose of endostatin. The results are shown in FIGS. 11a and 11b and the following Table.

BEL7402 (Liver cancer) = assay: MTT in vitro inhibition of BEL7402; format: cell-based
Experimental: as §1, §2

N.N.[Cl][Pt][Cl] [DDP, Cisplatin]
Tumor inhibitor rate (%) ([1]; DDP 2 mg/kg/day ip 7 days alone or with polypeptide 15 mg/kg or endostatin/endostar 50 mg/kg sc 2 times per day 21 days): 24.8% | Tumor inhibitor rate (%) ([1]; DDP 6 mg/kg/day ip 7 days (high dose)): 81.9% | animals with residual tumor ([1]; of 6 animals, combination with DDP 2 mg/kg, DDP alone 6 mg/kg): 6

CC[C@H](C)[C@H](NC(=O)CNC(=O)[C@H](CCCNC(=N)N)NC(=O)[C@H](CCSC)NC(=O)CNC(=O)CNC(=O)[C@H](CO)NC(=O)[C@H](CC(C)C)NC(=O)[C@@H]1CCCN1C(=O)[C@H](CO)NC(=O)[C@H](CC(N)=O)NC(=O)[C@H](CC(C)C)NC(=O)[C@H](C)NC(=O)[C@@H](NC(=O)[C@H](CC(C)C)NC(=O)[C@H](Cc1c[nH]cn1)NC(=O)[C@H](CC(C)C)NC(=O)[C@@H](NC(=O)[C@@H]1CCCN1C(=O)[C@H](CCC(N)=O)NC(=O)[C@H](Cc1ccccc1)NC(=O)[C@H](CC(=O)O)NC(=O)[C@H](CCCNC(=N)N)NC(=O)[C@H](Cc1c[nH]cn1)NC(=O)[C@H](CO)NC(=O)[C@H](Cc1c[nH]cn1)NC(C)=O)C(C)C)C(C)C)C(=O)N[C@@H](CCCNC(=N)N)C(=O)NCC(=O)N[C@@H](C)C(=O)N[C@@H](CC(=O)O)C(N)=O [Polypeptide P2] (Ac-HSHRDFQPVLHLVALNSPLSGGMRGIRGAD-NH2)
IC50 ([2]; CK-MES-1): 863.1 µg/mL (≈ 263 µM) | Cell Survival (%) at a polypeptide concentration of 1 mg/ml ([2]; CK-MES-1, 1 mg/ml): 42% | time after being added into the culture medium at which the polypeptide acts on the cells [3]: 4 h | state of cells at 24 hours ([3]; 24 hours): basically died | IC50 (SPC-A-1 (lung carcinoma); SPC-A-1): 1111.8 µg/mL (≈ 339 µM) | Cell Survival (%) at a polypeptide concentration of 1 mg/ml (SPC-A-1 (lung carcinoma); SPC-A-1, 1 mg/ml): 48% | IC50 (LS174T (Colon cancer)): 1683.8 µg/mL (≈ 513 µM) | Cell Survival (%) at a polypeptide concentration of 1 mg/ml (LS174T (Colon cancer); 1 mg/ml): 95% | IC50 (ug/ml) HepG2 (tumor cell HepG2): 1033.4 µg/mL (≈ 315 µM) | Cell Survival (%), 1 mg/ml of polypeptide, HepG2 (tumor cell HepG2; 1): 41% | IC50 (SMMC7721 (Liver cancer); SMMC7721): 1030.2 µg/mL (≈ 314 µM) | Cell Survival (%) at a polypeptide concentration of 1 mg/ml (SMMC7721 (Liver cancer); SMMC7721, 1 mg/ml): 42% | IC50 (A549 (lung carcinoma); A549): 1312.2 µg/mL (≈ 400 µM) | Cell Survival (%) at a polypeptide concentration of 1 mg/ml (A549 (lung carcinoma); A549, 1 mg/ml): 57% | IC50 ([4]; BxPC-3): 860.9 µg/mL (≈ 262 µM) | Cell Survival (%) at a polypeptide concentration of 1 mg/ml ([4]; BxPC-3, 1 mg/ml): 40% | IC50 (ug/ml) HUVEC [5]: 733.4 µg/mL (≈ 224 µM) | Cell Survival (%), 1 mg/ml of polypeptide, HUVEC ([5]; 1 mg/ml): 25% | Tumor inhibitor rate (%) [6]: 33.7% | IC50 (BEL7402 (Liver cancer); BEL7402): 732.9 µg/mL (≈ 223 µM) | Cell Survival (%) at a polypeptide concentration of 1 mg/ml (BEL7402 (Liver cancer); BEL7402, 1 mg/ml): 20%
